{
  "source": "patent US10639287B2",
  "about": "“Compounds for the treatment of mitochondrial diseases” (UNIVERSITE PARIS-SUD, priority 2014, dated 2020)",
  "key": {"MIP1 yeast mutants": {"tested_on": "MIP1 yeast mutants", "test": "Fidelity of Mip1 polymerase: frequency of cells resistant to erythromycin (Ery^R)", "format": "cell-based, Saccharomyces cerevisiae", "conditions": "32 μM vs DMSO", "source_text": "A disruption of the fidelity of the Mip1 mitochondrial polymerase can be evaluated by measuring the frequency of cells resistant to erythromycin (Ery^R). The Ery^R mutations are caused by mutations in the 21S mitochondrial ribosomal RNA encoded by mtDNA that may occur after incorporation of a bad nucleotide (Baruffini, E., Lodi, T., Dallabona, C., Puglisi, A., Zeviani, M. and Ferrero, I. (2006) Genetic and Chemical rescue of the Saccharomyces cerevisiae phenotype induced by mitochondrial DNA polymerase mutations associated with progressive external ophthalmoplegia in humans. Hum. Mol. Genet., 15, 2846-2855). Measuring the resistance to erythromycin is one way to directly measure the point mutations of mtDNA.\nIndependent colonies were seeded in 10 mL of minimal medium (SC-TRP, 2% glucose) in the presence of 32 μM clofilium tosylate or DMSO to stationary phase. […] The mutation frequency was calculated as the number of Ery^R colonies among the total number of colonies (Baruffini, E., Lodi, T., Dallabona, C., Puglisi, A., Zeviani, M. and Ferrero, I. (2006) Genetic and Chemical rescue of the Saccharomyces cerevisiae phenotype induced by mitochondrial DNA polymerase mutations associated with progressive external ophthalmoplegia in humans. Hum. Mol. Genet., 15, 2846-2855)."}, "[1]": {"tested_on": "wild-type N2 BRISTOL line", "conditions": "Caenorhabditis elegans, in vivo, 4 days", "protocol": "A series of NGM dishes containing clofilium tosylate at concentrations of 1 μM, 5 μM, 10 μM, 50 μM, 100 μM or 200 μM were prepared (three dishes for each concentration). Between 30 and 40 synchronised L1 larvae of the wild-type N2 BRISTOL line or mutated VC1224 line (polg-1(ok1458Δ/+)/mT1 II; +/mT1 [dpy-10(el28)] II), these being nematodes carrying a heterozygous deletion of 2149 bp in the sequence encoding the polg-1 gene, were deposited on each of these dishes."}, "[2]": {"tested_on": "haploinsufficient TB2143 nematodes (polg-1(ok1458Δ/+))", "test": "Test for resistance to ethidium bromide of haploinsufficient polg-1 nematodes", "format": "in vivo, Caenorhabditis elegans", "conditions": "50 μM, 30 μg/mL ethidium bromide, 4 days", "source_text": "Ethidium bromide is an intercalating agent of DNA, especially of mtDNA, rich in adenine and thymidine. At high concentrations it halts the development of the worms at stage L3 (Addo, M. G., Cossard, R., Pichard, D., Obiri-Danso, K., Rötig, A. and Delahodde, A. (2010) Caenorhabditis elegans, a pluricellular model organism to screen new genes involved in mitochondrial genome maintenance. BBA-Mol. Basis Dis., 1802, 765-773. The haploinsufficient TB2143 nematodes (polg-1(ok1458Δ/+)) are highly sensitive to low doses of ethidium bromide (30 μg/mL) with 90% of the larvae halted at stage L3.\nAround thirty wild-type larvae or larvae mutated in polg-1 (TB2143 line (polg-1(ok1458Δ/+))) synchronised at stage L1 were deposited on NGM dishes containing 30 μg mL ethidium bromide and either DMSO or 50 μM clofilium tosylate (experiment performed in triplicate). Larval development was examined after 4 days of treatment."}, "[3]": {"tested_on": "homozygous TB2143 nematodes (polg-1(Δ/Δ))", "test": "Number of laid and hatched eggs of homozygous nematodes", "format": "in vivo, Caenorhabditis elegans", "conditions": "50 μM vs DMSO", "protocol": "Four homozygous TB2143 larvae (polg-1(ok1548Δ/Δ)) at stage L4 were deposited on each NGM dish containing either DMSO or 50 μM clofilium tosylate (three dishes for each treatment group). They were incubated at 20° C. to adulthood stage. The adults were moved every 9 to 12 hours, over 6 to 7 days, to new dishes containing DMSO or 50 μM clofilium tosylate until there were no eggs in the uterus, and the number of laid eggs was counted. Each laying process was monitored until the following day in order to count the hatching."}, "[4]": {"tested_on": "homozygous TB2143 nematodes (polg-1(ok1548Δ/Δ))", "test": "Amount of mtDNA of homozygous nematodes depleted of mtDNA", "format": "in vivo, Caenorhabditis elegans", "protocol": "Ten homozygous or wild-type TB2143 larvae (polg-1(ok1548Δ/Δ)) at stage L4 were deposited on each NGM dish containing either DMSO or 50 μM clofilium tosylate (three dishes for each treatment group). They were incubated at 20° C. until the 6th day of adulthood. Extraction of the total nematode DNAs was performed with the Nucleospin Kit Tissue kit (Macherey Nagel). The quantifications of mtDNA and nuclear DNA were performed as described in Addo et al., 2010 (Addo, M. G., Cossard, R., Pichard, D., Obiri-Danso, K., Rötig, A. and Delahodde, A. (2010) Caenorhabditis elegans, a pluricellular model organism to screen new genes involved in mitochondrial genome maintenance. BBA-Mol. Basis Dis., 1802, 765-773)."}, "[5]": {"tested_on": "mitochondrial proteins POLG, TFAM and ATP5B", "test": "Amount of POLG, TFAM and ATP5B proteins in fibroblasts (western blot), cell growth conditions", "format": "cell-based, human", "conditions": "0.5 μM or 1.0 μM, control and patient fibroblasts", "protocol": "Protein fractions of total extracts of control fibroblasts and of fibroblasts from a patient with a mutation on each allele of the POLG gene cultured in the presence of 0.1% DMSO or with 0.5 μM or 1.0 μM clofilium tosylate were analysed by electrophoresis.\nSkin fibroblasts from the control and from the patient were cultured to 100% confluence in a complete Dulbecco's Modified Eagle Medium (DMEM) high glucose medium (4.5 g/L D-glucose, 110 mg/L sodium pyruvate, 10% foetal bovine serum, 1% penicillin/streptomycin from the stock solution containing 10,000 I.U. penicillin and 10,000 μg/mL streptomycin) at 37° C. under 5% CO2. At confluence, the cultures were trypsinised and placed in culture at 30% confluence in a complete DMEM high glucose medium supplemented with either 0.1% DMSO or with 0.5 μM or 1.0 μM clofilium tosylate. The cells were then incubated at 37° C. under 5% CO2 and harvested at 100% confluence. After trypsinisation, the total proteins of the fibroblasts were extracted and analysed by western blot. The proteins studied were the POLG protein (subjected to SDS/PAGE gel analysis (6%)), the mitochondrial proteins ATP5B and TFAM, and the cytosolic protein TUB3A as batch control."}},
  "data": [
    {"compound": "CCCCCCC[N+](CC)(CC)CCCCc1ccc(Cl)cc1.Cc1ccc(S(=O)(=O)[O-])cc1", "note": "[clofilium tosylate]", "values": [
      {"measurement": "fidelity of the different MIP1 yeast mutants (Ery^R frequency)", "setting": "MIP1 yeast mutants", "value": "no effect"},
      {"measurement": "concentration at which a halt in development at stage L3 or a slowdown in development was observed", "setting": "[1]", "value": 100, "unit": "µM"},
      {"measurement": "maximum concentration to use", "setting": "[1]", "value": 50, "unit": "µM"},
      {"measurement": "resistance to ethidium bromide", "setting": "[2]", "value": "increased resistance"},
      {"measurement": "hatching of embryos", "setting": "[3]", "value": "increased"},
      {"measurement": "number of laid eggs", "setting": "[3]", "value": "increased"},
      {"measurement": "amount of mtDNA of homozygous TB2143 nematodes", "setting": "[4]; 50 μM vs DMSO", "value": "Clofilium tosylate increased the amount of mtDNA of homozygous TB2143 nematodes (polg-1(ok1548Δ/Δ)) depleted of mtDNA."},
      {"measurement": "mtDNA/nuDNA", "setting": "[4]; polg-1(ok1548Δ/Δ), 50 μM, 6th day of adulthood", "value": 69.2},
      {"measurement": "amount of mitochondrial proteins POLG, TFAM and ATP5B", "setting": "[5]", "value": "increased"}
    ]}
  ]
}
